Molecular target: T1, coca-GlyR (Homo sapiens, UniProt P23415+P36544, G175K/L141G/Y217F)
T1 construct: expressed in transfected cells; host or cells: HEK293 (ATCC CRL-1573), pcDNA3.1
Test: [^3H]ASEM displacement, membranes of HEK293 cells expressing coca-GlyR
Type: binding
Conditions: for Ki: [^3H]ASEM competition, two-site fit
Experimental: Cells were suspended in Tris-HCl 50 mM pH 7.4 supplemented with protease inhibitor cocktail (1:100, Sigma-Aldrich). HEK293 cells were disrupted with a 6 Polytron homogenizer (Kinematica). Homogenates were centrifuged at 48,000g (50 min, 4 °C) and washed twice in the same conditions to isolate the membrane fraction. Protein was quantified using the bicinchoninic acid method (Pierce). […] Free and membrane-bound radioligands were separated by rapid filtration of 500 μl aliquots in a 96-well plate harvester (Brandel) and washed with 2 ml of ice-cold Tris-HCl buffer. Microscint-20 scintillation liquid (65 μl per well, PerkinElmer) was added to the filter plates, plates were incubated overnight at room temperature and radioactivity counts were determined in the MicroBeta2 plate counter (PerkinElmer) with an efficiency of 41%. Two-site competition curves were fitted using Prism 10 (GraphPad). Ki values were calculated using the Cheng–Prusoff equation.

T1 sequence (P36544+P23415 fused P36544:L141G/P36544:G175K/P36544:Y217F): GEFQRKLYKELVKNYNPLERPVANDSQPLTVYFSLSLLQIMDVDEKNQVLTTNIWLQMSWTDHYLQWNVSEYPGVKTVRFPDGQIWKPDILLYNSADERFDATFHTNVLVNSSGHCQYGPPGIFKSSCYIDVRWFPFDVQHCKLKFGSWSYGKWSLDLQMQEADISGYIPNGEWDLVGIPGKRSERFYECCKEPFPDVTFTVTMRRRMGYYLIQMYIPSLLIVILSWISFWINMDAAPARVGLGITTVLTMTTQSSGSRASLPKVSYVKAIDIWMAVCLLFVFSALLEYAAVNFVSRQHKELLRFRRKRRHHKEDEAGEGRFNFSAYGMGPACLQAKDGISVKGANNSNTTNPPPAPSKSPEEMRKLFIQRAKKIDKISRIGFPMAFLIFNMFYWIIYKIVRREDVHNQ

Q: With `COC(=O)[C@H]1[C@@H](OC(=O)c2ccccc2)C[C@@H]2CC[C@H]1N2C` [cocaine] as the compound, how does the “binding to coca-GlyR” value read?
A: biphasic manner

Q: And the Ki (KiH)?
A: 0.014 ± 0.01 nM

Q: What about the Ki (KiL) of the same compound?
A: 850 ± 500 nM

Q: What about the high-affinity binding sites (biphasic competition curve, [^3H]ASEM) of the same compound?
A: 37.9 ± 0.5%
